What was measured:
[1] = system: Mus musculus; test: Lessening of memory impairment measured in mice; time of latency in seconds at an intravenous dose of 10 mg/kg.; assay type: functional
[2] = target: GABA-A receptor; anion channel; test: Inhibition of [3H]flunitrazepam binding to GABA-A Benzodiazepine receptor of Wistar rat cerebral cortex; assay type: tissue-based
[3] = system: Rattus norvegicus; test: Anticonflict activity measured in male wistar rats; number of shocks received in 5 min at an intravenous dose of 10 mg/kg.; assay type: functional
[4] = system: Rattus norvegicus; test: No of shocks of 5 min was reported after oral administration of a dose of 40 mg/kg in 9 rats; assay type: functional
[5] = target: T1, 5-hydroxytryptamine receptor 1A (Rattus norvegicus, UniProt P19327); test: Binding affinity towards 5-hydroxytryptamine 1A receptor in rat brain; assay type: tissue-based
T1 sequence (P19327 whole entry): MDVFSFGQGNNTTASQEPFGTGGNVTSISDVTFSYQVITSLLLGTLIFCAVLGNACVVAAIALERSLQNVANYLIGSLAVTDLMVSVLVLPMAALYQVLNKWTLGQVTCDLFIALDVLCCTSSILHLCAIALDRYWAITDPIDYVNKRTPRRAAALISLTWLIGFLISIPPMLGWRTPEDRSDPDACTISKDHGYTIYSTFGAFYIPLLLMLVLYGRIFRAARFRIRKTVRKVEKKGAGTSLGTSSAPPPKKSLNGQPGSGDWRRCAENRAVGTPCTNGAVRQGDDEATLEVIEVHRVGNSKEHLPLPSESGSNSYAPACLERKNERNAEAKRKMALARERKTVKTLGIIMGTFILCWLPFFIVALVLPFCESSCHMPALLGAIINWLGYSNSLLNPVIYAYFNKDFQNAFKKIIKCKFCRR

[6] = system: Mus musculus; test: […] activity after oral administration of a dose of 5 mg/kg; Number of mice which prolonged latency more than twice the duration of mice administered Scopolamine singly/number of mice tested 1/8; assay type: functional
[7] = system: Rattus norvegicus; test: No. rats showing anticonflict activity after oral administration of a dose of 5 mg/kg; Number of rats which received shocks more than twice vs shocks received in control rats to that of number of rats tested 3/10; assay type: functional
[8] = system: Rattus norvegicus; test: No. rats showing anticonflict activity after oral administration of a dose of 20 mg/kg; Number of rats which received shocks more than twice vs shocks received in control rats to that of number of rats tested 5/10; assay type: functional
[9] = system: Mus musculus; test: Latency step was determined after oral administration of a dose of 5 mg/kg in 8 mice; assay type: functional
[10] = system: Rattus norvegicus; test: No. rats showing anticonflict activity after oral administration of a dose of 40 mg/kg; Number of rats which received shocks more than twice vs shocks received in control rats to that of number of rats tested 6/9; assay type: functional
[11] = system: Rattus norvegicus; test: No of shocks of 5 min was reported after oral administration of a dose of 5 mg/kg in 10 rats; assay type: functional
[12] = system: Mus musculus; test: No. rats showing anticonflict activity after oral administration of a dose of 20 mg/kg; Number of mice which prolonged latency more than twice the duration of mice administered Scopolamine singly/number of mice tested 3/8; assay type: functional
[13] = system: Mus musculus; test: Latency step was determined after oral administration of a dose of 20 mg/kg in 8 mice; assay type: functional
[14] = system: Rattus norvegicus; test: No of shocks of 5 min was reported after oral administration of a dose of 20 mg/kg in 10 rats; assay type: functional
[15] = system: Mus musculus; test: Number of mice showing anti-amnesic activity after oral administration of a dose of 5 mg/kg; Number of mice which prolonged latency more than twice the duration of mice administered Scopolamine singly/number of mice tested 2/8; assay type: functional
[16] = system: Mus musculus; test: […] activity after oral administration of a dose of 40 mg/kg; Number of mice which prolonged latency more than twice the duration of mice administered Scopolamine singly/number of mice tested 6/8; assay type: functional
[17] = system: Rattus norvegicus; test: No. rats showing anticonflict activity after oral administration of a dose of 20 mg/kg; Number of rats which received shocks more than twice vs shocks received in control rats to that of number of rats tested 6/10; assay type: functional
[18] = system: Mus musculus; test: No. rats showing anticonflict activity after oral administration of a dose of 20 mg/kg; Number of mice which prolonged latency more than twice the duration of mice administered Scopolamine singly/number of mice tested 4/8; assay type: functional
[19] = system: Rattus norvegicus; test: No. rats showing anticonflict activity after oral administration of a dose of 40 mg/kg; Number of rats which received shocks more than twice vs shocks received in control rats to that of number of rats tested 8/10; assay type: functional
[20] = system: Mus musculus; test: Latency step was determined after oral administration of a dose of 40 mg/kg in 8 mice; assay type: functional
[21] = system: Rattus norvegicus; test: No of shocks of 5 min was reported after oral administration of a dose of 20 mg/kg; assay type: functional
[22] = system: Mus musculus; test: No. of mice showing anti-amnesic activity after oral administration of a dose of 5 mg/kg; Number of mice which prolonged latency more than twice the duration of mice administered Scopolamine singly/number of mice tested 4/8; assay type: functional
[23] = system: Mus musculus; test: No. of mice showing anti-amnesic activity after oral administration of a dose of 40 mg/kg; Number of mice which prolonged latency more than twice the duration of mice administered Scopolamine singly/number of mice tested 6/8; assay type: functional
[24] = system: Mus musculus; test: Latency step was determined after oral administration of a dose of 40 mg/kg in 8 mice.; assay type: functional
[25] = system: Rattus norvegicus; test: No. rats showing anticonflict activity after oral administration of a dose of 20 mg/kg; Number of rats which received shocks more than twice vs shocks received in control rats to that of number of rats tested 2/8; assay type: functional
[26] = system: Mus musculus; test: No. of mice showing anti-amnesic activity after oral administration of a dose of 20 mg/kg; Number of mice which prolonged latency more than twice the duration of mice administered Scopolamine singly/number of mice tested 4/8; assay type: functional
[27] = system: Rattus norvegicus; test: No. rats showing anticonflict activity after oral administration of a dose of 40 mg/kg; Number of rats which received shocks more than twice vs shocks received in control rats to that of number of rats tested 4/7; assay type: functional
[28] = system: Mus musculus; test: Latency step was determined after oral administration of a dose of 20 mg/kg in 8 mice.; assay type: functional
[29] = system: Rattus norvegicus; test: No of shocks of 5 min was reported after oral administration of a dose of 40 mg/kg; assay type: functional
[30] = system: Mus musculus; test: […] activity after oral administration of a dose of 5 mg/kg in mice; Number of mice which prolonged latency more than twice the duration of mice administered Scopolamine singly/number of mice tested 1/10; assay type: functional
[31] = system: Rattus norvegicus; test: No. rats showing anticonflict activity after oral administration of a dose of 10 mg/kg; Number of rats which received shocks more than twice vs shocks received in control rats to that of number of rats tested 25/43; assay type: functional
[32] = system: Rattus norvegicus; test: No of shocks of 5 min was reported after oral administration of a dose of 5 mg/kg in 43 rats; 25/43; assay type: functional
[33] = system: Rattus norvegicus; test: Anticonflict activity was measured in male wistar rats; number of shocks received in 5 min at a dose of 3 mg/kg ip; assay type: functional; conditions: route intraperitoneal
[34] = species: Mus musculus; test: Lessening of memory impairment by the compound was measured in mice.; assay type: functional

SMILES	Activity [1]	Activity [3]	other results
CCOC(=O)C1Cc2c(sc3ccccc23)CN1C(C)=O (centres undefined)	37.3	–	–
CCCOC(=O)c1cc2c(cn1)sc1ccccc12	22.1	9.6	IC50 [2]: 1.53 mM
CCOC(=O)C1Cc2c(sc3ccccc23)CN1C (centres undefined)	32.9	22	–
O=C(NC1CCCCC1)C1Cc2c(sc3ccccc23)CN1 (centres undefined)	120.4	36.9	IC50 [2]: 1.6 mM; No. of shocks [4]: 26.9; Ki [5]: 0.00028 mM; Antiamnesic activity [6]: 1; Anticonflict activity [7]: 3; Anticonflict activity [8]: 5; Activity [9]: 67.5; Anticonflict activity [10]: 6; No. of shocks [11]: 15.5; Antiamnesic activity [12]: 3; Activity [13]: 85; No. of shocks [14]: 28.1
Cl.O=C(c1cc2c(cn1)sc1ccccc12)N1CCNCC1	40.7	17.8	–
Cl.NCC(=O)N1CCCN(C(=O)c2cc3c(cn2)sc2ccccc23)CC1	–	14.1	–
Cl.O=C(c1cc2c(cn1)sc1ccccc12)N1CCCNCC1	38.9	21.8	–
CCOC(=O)C1Cc2c(sc3ccccc23)CN1 (centres undefined)	90.5	27.2	Antiamnesic activity [15]: 2; IC50 [2]: 1.5 mM; Antiamnesic activity [16]: 6; Anticonflict activity [17]: 6; No. of shocks [4]: 30.2; Antiamnesic activity [18]: 4; Anticonflict activity [19]: 8; Anticonflict activity [7]: 3; Activity [9]: 68.8; No. of shocks [11]: 16.1; Activity [13]: 110.1; Activity [20]: 129.9; No. of shocks [14]: 29.3
CN1CCN(C(=O)c2cc3c(cn2)sc2ccccc23)CC1.Cl	44.2	3.3	–
COC(=O)c1cc2c(cn1)sc1ccccc12	31.6	8.5	–
Cl.NCCCNC(=O)c1cc2c(cn1)sc1ccccc12	37.7	15.2	–
CN(C)CCNC(=O)c1cc2c(cn1)sc1ccccc12.Cl	64.5	9.6	–
NC(=O)c1cc2c(cn1)sc1ccccc12	24.7	17	IC50 [2]: 1.56 mM
CCCCCCNC(=O)c1cc2c(cn1)sc1ccccc12	62.3	10.5	–
CCNC(=O)c1cc2c(cn1)sc1ccccc12	36.3	8.5	–
CNC(=O)c1cc2c(cn1)sc1ccccc12	28.6	8.4	–
Cl.NCCNC(=O)c1cc2c(cn1)sc1ccccc12	103.9	37.2	No. of shocks [21]: 9.3; Antiamnesic activity [22]: 4; Antiamnesic activity [23]: 6; Activity [24]: 125.1; Anticonflict activity [25]: 2; Antiamnesic activity [26]: 4; Anticonflict activity [27]: 4; Activity [9]: 65.5; Activity [28]: 106.7; No. of shocks [29]: 22
O=C(O)c1cc2c(cn1)sc1ccccc12	55.8	4	–

SMILES	Activity [1]	Activity [3]	other results
CC1CN(C(=O)c2cc3c(cn2)sc2ccccc23)CCN1.Cl (centres undefined)	40.3	7.6	–
CN1C(=O)CN=C(c2ccccc2)c2cc(Cl)ccc21 [DIAZEPAM]	–	–	Antiamnesic activity [30]: 1; Anticonflict activity [31]: 25; No. of shocks [32]: 22.7; Activity [33]: 39.4
NNC(=O)c1cc2c(cn1)sc1ccccc12	20.4	11.2	–
CCOC(=O)C1Cc2c(sc3ccccc23)CN1C(=O)c1ccccc1 (centres undefined)	35.1	6.3	–
Cl.O=C(c1cc2c(cn1)sc1ccccc12)N1CCCN(Cc2ccc(Cl)cc2)CC1	34.7	12.8	–
COC(=O)CCCNC(=O)c1cc2c(cn1)sc1ccccc12	–	9.9	–
O=C(c1cc2c(cn1)sc1ccccc12)N1CCCCC1	60.2	5	–
Cl.NCCCC(=O)N1CCCN(C(=O)c2cc3c(cn2)sc2ccccc23)CC1	51.9	–	–
O=C(c1cc2c(cn1)sc1ccccc12)N1CCOCC1	52.9	8.2	–
CCCNC(=O)c1cc2c(cn1)sc1ccccc12	42	17.3	–
CC1CCCC(C)N1C(=O)c1cc2c(cn1)sc1ccccc12 (centres undefined)	–	4.5	–
CCCOC(=O)C1Cc2c(sc3ccccc23)CN1 (centres undefined)	57.2	14.5	–
CC(=O)N1CCCN(C(=O)c2cc3c(cn2)sc2ccccc23)CC1.Cl	55	22.2	–
CCOC(=O)C1Cc2c(sc3ccccc23)CN1C(=O)c1ccccc1Cl (centres undefined)	28.1	2.5	–
CCOC(=O)c1cc2c(cn1)sc1ccccc12	11.3	10.7	–
COC(=O)C1Cc2c(sc3ccccc23)CN1 (centres undefined)	–	17.9	Activity [34]: 64.5
CN1CCCN(C(=O)c2cc3c(cn2)sc2ccccc23)CC1.Cl	40.3	3.5	–

Reference: ChEMBL document CHEMBL1125017, “Potent anticonflict activity and lessening of memory impairment with a series of novel [1]benzothieno[2,3-c]pyridines and 1,2,3,4-tetrahydro[1]benzothieno[2,3-c]pyridines” (J Med Chem, 1990)
